Columns and labels:
Diabetic Rats = assay: Effect on serum glucose, body weight and HbA1c in STZ/nicotinamide-induced type 2 diabetic rats, 4 weeks treatment; assay type: in vivo, rat; conditions: diabetic rats (STZ 65 mg/kg + NIC 150 mg/kg i.p.), 30 mg/kg/day; for Glucose: serum glucose
Protocol: (§1) Effect of Nateglinide alone and Formula I (1-2) on Serum Glucose, Body Weights and HbAlc in Non-Diabetic and Diabetic Rats:
Type 2 Diabetes was induced in overnight fasted rats by a single intraperitoneal injection of 65 mg/kg Streptozotocin (STZ), 15 min after the i.p administration of 150 mg/kg of Nicotinamide (NIC). After 7 days following STZ and NIC administration, blood was collected from tail vein and serum samples were analyzed for blood glucose. Animals showing fasting blood glucose higher than 300 mg/dl were considered as diabetic and were used for the study.
(§2) Methods: Animals were divided in to following groups, each group containing 6 animals and the treatment period for whole study was 4 weeks.
Group 4: Diabetic control, single injection of STZ (65 mg/kg, i.p) and NIC (150 mg/kg, i.p, DB-CON).
Group 5: Diabetic rats (DB) treated with NAT (30 mg/kg/day, DB-NAT).
Group 6: Diabetic rats treated with Formula I (1-2) (30 mg/kg/day, p.o)
(§3) Effect of Nateglinide (30 mg/kg/day, p.o) and Formula I (30 mg/kg/day, p.o) on Changes in Body Weight, Serum Glucose and HbAlc Level in Nondiabetic and Diabetic Rats.

Non-Diabetic Rats = assay: Effect on serum glucose, body weight and HbA1c in nondiabetic rats, 4 weeks treatment; assay type: in vivo, rat; conditions: 30 mg/kg/day p.o.; for Glucose: serum glucose
Protocol: as §1, §2
Group 1: Nondiabetic (ND) control, received CMC as vehicle (1 ml/kg/day, p.o, NDCON).
Group 2: Nondiabetic group treated with Nateglinide (NAT) (30 mg/kg/day, p.o, ND-NAT).
Group 3: Nondiabetic group treated with Formula I (1-2) (30 mg/kg/day, p.o)
as §3

SMILES | (%, HbA1c) (Diabetic Rats) | Body weight (gm) (Diabetic Rats) | Glucose (Diabetic Rats) [mg/dL] | (%, HbA1c) (Non-Diabetic Rats) | Body weight (gm) (Non-Diabetic Rats) | Glucose (Non-Diabetic Rats) [mg/dL]
CC(C)[C@H]1CC[C@H](C(=O)N[C@H](Cc2ccccc2)C(=O)O)CC1 [NAT, Nateglinide] | 6.78 +/− 0.98% | 219.8 +/− 50.28 gm | 170.7 ± 13.21 | 5.04 +/− 0.30% | 224.0 +/− 7.23 gm | 70.21 ± 5.6
CC(C)[C@H]1CCC[C@H](C(=O)N[C@H](Cc2ccccc2)OC(=O)OC(=O)CCCC[C@]2(C)CCSS2)C1 [FORMULA I] | 4.01 +/− 0.72% |  | 99.1 ± 12.1 | 4.21 +/− 0.67% | 265.1 +/− 9.3 gm | 77.87 ± 9.67

Reference: patent US20160122313A1, “COMPOSITIONS AND METHODS FOR THE TREATMENT OF DIABETES” (priority 2014, published 2016)
